From patent US9913838B2, “Methods of treating cancer using compositions comprising perillyl alcohol derivative” (NEONC TECHNOLOGIES INC., priority 2010, dated 2018)
Entries after “also recorded” stand apart in the source; their conditions may differ.

Assays:
MDA-MB-231 = test: cells; settings: for reduction of colony formation: 10 μM (each), 48 hours; for IC50: Homo sapiens, MDA-MB-231, 48 h, read-out: IC50 (concentration required to decrease colony formation by 50%)
Experimental: Depending on the cell line (and plating efficiency), 200-350 cells were seeded into each well of a 6-well plate. […] Thereafter, the drugs were removed, fresh growth medium was added, and the cells were kept in culture undisturbed for 12-16 days, during which time the surviving cells spawned colonies of descendants. Colonies (defined as groups of >50 cells) were visualized by staining for 4 hours with 1% methylene blue (in methanol), and then were counted.
In the case of O6-BG treatment, cells were pretreated with 10 μM O6-BG for one hour before addition of TMZ or TMZ-POH. After 24 hours, another 10 μM O6-BG was added to the medium. Another 24 hours later, drug-laced medium was removed, and fresh medium without drugs was added. Thereafter, cells remained undisturbed until staining with methylene blue.
The cytotoxic potency of TMZ-POH, was analyzed by colony formation assay (CFA) in a variety of human breast cancer cell lines and compared to the cytotoxicity of TMZ. We used estrogen receptor positive cells MCF7 and T47D, the triple-negative lines MDA-MB-231, MDA-MB-468, and HCC-1937, and a brain-seeking variant of the 231 cell line, MDA-MB-231-br.
Thus, we tested whether simply mixing the two compounds TMZ and POH could mimic the effects of the TMZ-POH conjugate. MDA-MB-231 cells were treated with the individual compounds (TMZ-POH, TMZ or POH) alone, or with an equimolar mix of TMZ plus POH, and cell survival was analyzed by CFA.

MDA-MB-231 cells = test: Determination of drug stability by colony formation assay; format: cell-based, human; settings: for colony survival: drugs in the medium for 24 hours; for reduction of colony formation: one-hour exposure; for survival: two-hour exposure; for reduction of survival: added straight to cells, 24 hours; for colony-forming ability of receiving cells: supernatant transferred after prior one-hour incubation
Experimental: FIGS. 26A-26C depicts determination of drug stability, where MDA-MB-231 cells were analyzed in colony formation assays. In FIG. 26A, cells were treated with 15 μM TMZ-POH or 30 μM TMZ for 30 min or 1, 2, 4, and 24 hours. Thereafter, drug-containing medium was removed, fresh medium (without drug) was added, and cells remained undisturbed until colony staining 12 days later. The arrows indicate which cells received which supernatant. After 24 hours of incubation, all drug-containing medium was removed, fresh medium (without drug) was added, and cells remained undisturbed until colony staining 12 days later. […] Left panel (untreated): control cells without drug treatment. Middle panel (0-24 h): Cells received 15 μM TMZ-POH or 30 μM TMZ for 24 hours. Right panel (1-25 h): TMZ-POH and TMZ were incubated in neutral buffer at 37° C. for 1 hour before addition to cells to a final concentration of 15 μM TMZ-POH and 30 μM TMZ for 24 hours.
TMZ is a prodrug, and it is well known that its activation takes place spontaneously in aqueous solution at 37° C. (i.e., no cellular functions are required for this conversion). As well, the half-lives of both prodrug and active product are fairly short, where all cytotoxic triggers are set within the first few hours of treatment. […] First, we exposed cells to variably short periods of drug treatment, washed off the drug, and then continued to keep cells in medium without drug to determine survival and colony-forming ability. For most of these experiments, we used 15 μM TMZ-POH and 30 μM TMZ, because these concentrations are approximately equipotent in the >90% cytotoxicity range (when measured by CFAs and a drug exposure time of 24 hours).
Thus, TMZ acted more quickly than TMZ-POH; it required only 4 hours to exert maximum toxicity, whereas TMZ-POH had not yet reached its maximum impact at this time point.
We next modified this experiment as follows. After cells had been exposed to drug treatment for the specific times shown in FIG. 26A, we removed the medium containing the drug from the cells, and transferred this supernatant to fresh cells, which were then exposed for 24 hours. […] In contrast, when supernatant was transferred after prior one-hour incubation, colony-forming ability of receiving cells was 48% in cells receiving TMZ-containing supernatant, and 22% in TMZ-POH-containing supernatant.
To exclude the involvement of cellular enzymes in the turnover of TMZ-POH, we incubated TMZ-POH (and TMZ) in phosphate-buffered saline at 37° C. for one hour (in the absence of cells). After this pre-incubation, TMZ-POH and TMZ were added to cells for 24 hours, and survival was determined by CFA. As a control, both drugs were also added to cells without prior incubation in aqueous solution. A representative CFA is shown in FIG. 26C, where the middle panel confirms that both drugs were used at approximately equipotent concentrations; i.e., when added straight to cells, they reduced survival by ˜95%. However, pre-incubation in aqueous solution for only one hour preempted the cytotoxic potency of TMZ by about 50%, but that of TMZ-POH much less (80% remaining; see right panel).

U87 human glioma cells = test: MTT cytotoxicity assay, U87 glioma cells; settings: U87; result in words
Text: In vitro efficacy of the present composition can be determined using methods well known in the art. For example, the cytoxicity of the present monoterpene (or sesquiterpene) and/or the therapeutic agents may be studied by MTT [3-(4,5-dimethylthiazol-2-yl)-2,5-diphenyl tetrazolium bromide] cytotoxicity assay. MTT assay is based on the principle of uptake of MTT, a tetrazolium salt, by metabolically active cells where it is metabolized into a blue colored formazon product, which can be read spectrometrically. J. of Immunological Methods 65: 55 63, 1983. The cytoxicity of the present monoterpene (or sesquiterpene) derivative and/or the therapeutic agents may be studied by colony formation assay. Functional assays for inhibition of VEGF secretion and IL-8 secretion may be performed via ELISA. Cell cycle block by the present monoterpene (or sesquiterpene) derivative and/or the therapeutic agents may be studied by standard propidium iodide (PI) staining and flow cytometry. Invasion inhibition may be studied by Boyden chambers. In this assay a layer of reconstituted basement membrane, Matrigel, is coated onto chemotaxis filters and acts as a barrier to the migration of cells in the Boyden chambers. Only cells with invasive capacity can cross the Matrigel barrier. Other assays include, but are not limited to cell viability assays, apoptosis assays, and morphological assays.
First cytotoxicity assays were carried out after cells were treated with dimethyl-celecoxib (DMC) alone.
Then U87, A172 and U251 cells were treated with dimethyl celecoxib bisPOH carbamate (POH−DMC) (e.g., synthesized by the method in Example 1), and the MTT cytotoxicity assays performed (FIG. 2).
First cytotoxicity assays were carried out after cells were treated with temozolomide (TMZ) alone, the standard alkylating agent used in the treatment of malignant gliomas.
Then TMZ-resistant glioma cell lines U87, A172 and U251 cells were treated with TMZ-POH (e.g., synthesized by the method in Example 3).
To compare the cytotoxicity of Rolipram POH Carbamate (POH-Rolipram) (e.g., synthesized by the method in Example 5) with rolipram, […] inducing differentiation and apoptosis in glioma cells, A172, U87, U251 and LN229 human glioma cells were treated with either POH-Rolipram or rolipram for 48 hours.

Compound	reduction of colony formation (MDA-MB-231; MDA-MB-231)	IC50 (MDA-MB-231) [µM]	colony survival (MDA-MB-231 cells; 15 μM TMZ-POH or 30 μM TMZ)	reduction of colony formation (MDA-MB-231 cells; 15 μM TMZ-POH or 30 μM TMZ) [%]	survival (MDA-MB-231 cells; 15 μM TMZ-POH or 30 μM TMZ) [%]	reduction of survival (MDA-MB-231 cells; 15 μM TMZ-POH or 30 μM TMZ) [%]	colony-forming ability of receiving cells (MDA-MB-231 cells) [%]	cytotoxicity (MTT assay) (U87 human glioma cells)	Differential (−fold) (MDA-MB-231; fold increase in potency of TMZ-POH compared to TMZ, MDA-MB-231)	time required to exert maximum toxicity (MDA-MB-231 cells; 15 μM TMZ-POH or 30 μM TMZ) [h]	stability / retention of cytotoxic potency (MDA-MB-231 cells; in words)	cytotoxic potency remaining after pre-incubation (MDA-MB-231 cells; phosphate-buffered saline at 37° C. for one hour, absence of cells) [%]	cytotoxic activity of supernatant transferred after prior 24-hours of incubation (MDA-MB-231 cells; receiving cells exposed 24 hours, in words)
Cn1nnc2c(C(N)=O)ncn2c1=O [TMZ, temozolomide, reference compound]	about 50%	9.9	~8%	> 50	23	~95	48	minimal cytotoxicity					
C=C(C)[C@@H]1CC=C(COC(=O)NC(=O)c2ncn3c(=O)n(C)nnc23)CC1 [TMZ-POH]	about 95%	2.3	about 3%	20	51	~95	22	substantially higher kill rates	4.3 −fold	> 4	retained its cytotoxic potency substantially longer than TMZ; also recorded: more stable than TMZ	80	no cytotoxic activity remained
